Measured values from patent US20100151001A1, “ETHYNYLATED HETERODINUCLEOSIDE PHOSPHATE ANALOGS, METHOD FOR THE PRODUCTION THEREOF, AND USE THEREOF” (Eberhard Karls Universitat Tubingen, priority 2007, published 2010).

Assays:
ACHN = assay: cells; assay type: cell-based; settings: 48 h; for TGI: ACHN (kidneys), 100% growth inhibition, SRB; for CC50: Homo sapiens, ACHN, read-out: LC50
Experimental: (§1) Tumor cell lines, whose 100% growth inhibition (TGI) by the compounds according to the invention is determined at various concentrations, serve as the test system. The toxicity (LC50) of the compound to these cells is also determined. On day 0, a series of microtiter plates is inoculated with the tumor cells and preincubated for 24 h. Then the compound according to the invention is added to the cells in five in each case 10-fold diluted concentration, starting from the highest soluble concentration. After incubation for 48 hours, the cells are fixed in situ, washed and dried. Then sulforhodamine B (SRB), a pink dye that binds to the fixed cells, is added and the cells are washed again. The dye that remains represents the adherent cell mass and is determined spectroscopically. The automatically acquired data are evaluated by computer and lead, for the compound according to the invention 5-fluoro-2′-deoxyuridylyl-(5′-5′)-3′-C-ethynylcytidine and 5-fluoro-2′-deoxyuridylyl-(3′-5′)-3′-C-ethynylcytidine, to the following results, the data for the 3′-5′-coupled dimer being shown in bold above the data for the 5′-5′-coupled isomer.

SNB-75 = assay: cells; assay type: cell-based; settings: for CC50: Homo sapiens, SNB-75, 48 h, read-out: LC50; for TGI: SNB-75 (central nervous system), 100% growth inhibition, 48 h, SRB
Experimental: as §1

NCI-H522 = assay: cells; assay type: cell-based; settings: for CC50: Homo sapiens, NCI-H522, 48 h, read-out: LC50; for TGI: NCI-H522 (lung), 100% growth inhibition, 48 h, SRB
Experimental: as §1

A549/ATCC = assay: cells; assay type: cell-based; settings: for TGI: A549/ATCC (lung), 100% growth inhibition, 48 h incubation, SRB; for CC50: Homo sapiens, A549, 48 h, read-out: LC50
Experimental: as §1

BT-549 = assay: cells; assay type: cell-based; settings: for TGI: BT-549 (breast), 100% growth inhibition, 48 h, SRB; for CC50: Homo sapiens, BT-549, 48 h, read-out: LC50
Experimental: as §1

DU-145 = assay: cells; assay type: cell-based; settings: for TGI: DU-145 (prostate), 100% growth inhibition, 48 h, SRB; for CC50: Homo sapiens, DU-145, 48 h, read-out: LC50
Experimental: as §1

T-47D = assay: cells; assay type: cell-based; settings: 48 h; for CC50: Homo sapiens, T47D, read-out: LC50; for TGI: T-47D (breast), 100% growth inhibition, SRB
Experimental: as §1

EKVX = assay: cells; assay type: cell-based; settings: 48 h; for TGI: EKVX (lung), 100% growth inhibition, SRB; for CC50: Homo sapiens, EKVX, read-out: LC50
Experimental: as §1

HCC-2998 = assay: cells; assay type: cell-based; settings: for TGI: HCC-2998 (intestine), 100% growth inhibition, 48 h, SRB; for CC50: Homo sapiens, HCC 2998, 48 h, read-out: LC50
Experimental: as §1

LOX IMVI = assay: cells; assay type: cell-based; settings: 48 h; for CC50: Homo sapiens, LOX IMVI, read-out: LC50; for TGI: LOX IMVI (melanoma), 100% growth inhibition, SRB
Experimental: as §1

SF-295 = assay: cells; assay type: cell-based; settings: for CC50: Homo sapiens, SF-295, 48 h, read-out: LC50; for TGI: SF-295 (central nervous system), 100% growth inhibition, 48 h, SRB
Experimental: as §1

SK-MEL-2 = assay: cells; assay type: cell-based; settings: for LC50: Homo sapiens, SK-MEL-2, 48 h, read-out: LC50; for TGI: SK-MEL-2 (melanoma), 100% growth inhibition, 48 h, SRB
Experimental: as §1

MCF7 = assay: cells; assay type: cell-based; settings: for CC50: Homo sapiens, MCF7, 48 h, read-out: LC50; for TGI: MCF7 (breast), 100% growth inhibition, 48 h, SRB
Experimental: as §1

HCT-15 = assay: cells; assay type: cell-based; settings: for TGI: HCT-15 (intestine), 100% growth inhibition, 48 h, SRB; for CC50: Homo sapiens, HCT-15, 48 h, read-out: LC50
Experimental: as §1

HOP-92 = assay: cells; assay type: cell-based; settings: for TGI: HOP-92 (lung), 100% growth inhibition, 48 h, SRB; for CC50: Homo sapiens, HOP-92, 48 h, read-out: LC50
Experimental: as §1

CAK-1 = assay: cells; assay type: cell-based; settings: 48 h; for CC50: read-out: LC50; for TGI: CAK-1 (kidneys), 100% growth inhibition, SRB
Experimental: as §1

IGROV1 = assay: cells; assay type: cell-based; settings: for CC50: Homo sapiens, IGROV-1, 48 h, read-out: LC50; for TGI: IGROV1 (ovaries), 100% growth inhibition, 48 h, SRB
Experimental: as §1

SF-539 = assay: cells; assay type: cell-based; settings: for CC50: Homo sapiens, SF-539, 48 h, read-out: LC50; for TGI: SF-539 (central nervous system), 100% growth inhibition, 48 h, SRB
Experimental: as §1

Tumor cell lines = assay: Cytostatic action in vitro, comparison over the tumor cell lines; assay type: cell-based
Experimental: as §1

[1] = test system: LOX IMVI melanoma xenograft
Experimental: A cell suspension of 5×10^6 tumor cells (LOX IMVI, cell line 01/A/1) was implanted subcutaneously in female athymic nude mice (Animal Production Area, Frederick, Md.). Intraperitoneal administration of the active substance began 3 days after tumor implantation. For this, the active substance was administered dissolved in 10% DMSO/common salt solution plus Tween® 80.
Administration was carried out in each case over a four-day period and comprised a total of 5 treatments. The tests were evaluated by determining the T/C values.
For a model based on solid tumors, a T/C value of 40 must be reached to be regarded as effective.

## C#CC1(O)C(COP(=O)(O)OC2C[C@H](n3cc(F)c(=O)[nH]c3=O)O[C@@H]2CO)OC(n2ccc(N)nc2=O)C1O (stereo in doubt) [Example 1, 5-fluoro-2′-deoxyuridylyl-(3′-5′)-3′-C-ethynylcytidine]
ACHN
  TGI: 1.52 µM
  CC50: > 100 µM
SNB-75
  CC50: 4.72 µM
  TGI: 0.882 µM
NCI-H522
  CC50: > 100 µM
  TGI: 1.15 µM
A549/ATCC
  TGI: 29.6 µM
  CC50: > 100 µM
BT-549
  TGI: 0.346 µM
  CC50: 6.39 µM
DU-145
  TGI: 0.44 µM
  CC50: > 100 µM
T-47D
  CC50: > 100 µM
  TGI: 26.7 µM
EKVX
  TGI: 6.37 µM
  CC50: > 100 µM
HCC-2998
  TGI: 0.109 µM
  CC50: 1.73 µM
LOX IMVI
  CC50: 91.5 µM
  TGI: 0.348 µM
SF-295
  CC50: > 100 µM
  TGI: 1.07 µM
SK-MEL-2
  LC50: 69.5 µM
  TGI: 0.424 µM
MCF7
  CC50: > 100 µM
  TGI: 0.137 µM
HCT-15
  TGI: 15.1 µM
  CC50: > 100 µM
HOP-92
  TGI: 2.18 µM
  CC50: > 100 µM
CAK-1
  CC50: > 100 µM
  TGI: 0.0829 µM
IGROV1
  CC50: > 100 µM
  TGI: 12.9 µM
SF-539
  CC50: 32.2 µM
  TGI: 0.167 µM
Tumor cell lines; in vitro, tumor cell lines of the table
  effectiveness compared with the 5′-5′-coupled duplex active substance (example 2): much more effective
Tumor cell lines; often, over the tumor cell lines
  TGI values lower compared with the 5′-5′-coupled isomer: up to 1000 times
[1]; 11.2 mg/kg/injection intraperitoneal, 5 treatments, day 13, nude mice
  optimum T/C value: 16
[1]; 16.75 mg/kg/injection intraperitoneal, 5 treatments, day 11 after tumor implantation, nude mice
  maximum T/C value: 7
[1]; LOX IMVI xenograft, overall conclusion
  in vivo activity in the tumor model: significant in vivo activity

## C#CC1(O)C(COP(=O)(O)OC[C@H]2O[C@@H](n3cc(F)c(=O)[nH]c3=O)CC2O)OC(n2ccc(N)nc2=O)C1O (stereo in doubt) [Example 2, 5-fluoro-2′-deoxyuridylyl-(5′-5′)-3′-C-ethynylcytidine]
ACHN
  TGI: >100 µM
  CC50: > 100 µM
SNB-75
  CC50: > 100 µM
  TGI: >100 µM
NCI-H522
  CC50: > 100 µM
  TGI: >100 µM
A549/ATCC
  TGI: >100 µM
  CC50: > 100 µM
BT-549
  TGI: 11.6 µM
  CC50: > 100 µM
DU-145
  TGI: >100 µM
  CC50: > 100 µM
T-47D
  CC50: > 100 µM
  TGI: >100 µM
EKVX
  TGI: >100 µM
  CC50: > 100 µM
HCC-2998
  TGI: 2.95 µM
  CC50: 57.2 µM
LOX IMVI
  CC50: ≥ 100 µM
  TGI: 100 µM
SF-295
  CC50: > 100 µM
  TGI: 20.6 µM
SK-MEL-2
  LC50: 76.4 µM
  TGI: 5.78 µM
MCF7
  CC50: > 100 µM
  TGI: >100 µM
HCT-15
  TGI: >100 µM
  CC50: > 100 µM
HOP-92
  TGI: 21.5 µM
  CC50: > 100 µM
CAK-1
  CC50: > 100 µM
  TGI: >100 µM
IGROV1
  CC50: > 100 µM
  TGI: >100 µM
SF-539
  CC50: > 100 µM
  TGI: 2.01 µM
